Experimental data published in patent US11820782B2, “Salt forms of amino pyrazine purine based selective kinase inhibitor” (FTG BIO LLC, priority 2018, dated 2023).
In brackets after ≈: the same amount, converted by molar mass. Read-outs that look alike come from different tables or passages of the source.

Columns and labels:
[1] = Microsomal stability, PHLM; assay type: in vitro ADME; conditions: pooled human liver microsomes
Experimental: (§1) All in vitro experiments like protein binding, microsomal stability, cell cytotoxicity were performed as per study protocols of respective experiments.

[2] = tested on: MDA-MB-231 (breast cancer); assay: Anti-proliferative effect, MDA-MB-231; assay type: cell-based
Experimental: as §1

[3] = Microsomal stability, MLM; assay type: in vitro ADME; conditions: 3 μM (n = 3), mice liver microsomes
Experimental: as §1

[4] = Qualitative (kinetic/visual) solubility in solvents/media; assay type: physicochemical
Experimental: 2 mg quantity of API was taken in glass vial and small portions of solvent was added with vortexing till the clear solution is obtained (at room temperature or heating up to 50-60° C.).
Weighed quantity of API was taken in glass vial and small portions of solvent was added with vortexing till the clear solution is obtained (at room temperature or heating up to 50-60° C.).

[5] = Hygroscopicity (dynamic vapor sorption); assay type: physicochemical
Experimental: Sorption isotherms were obtained using a VTI-SA+-moisture sorption analyzer from TA instruments. The sample temperature was maintained at 25° C. by the instrument controls. The humidity was controlled by mixing the streams of dry and wet nitrogen, with a total flow rate of 200 mL/minute. The weight change of the sample as a function of % RH was constantly monitored by microbalance.
Typically, 5 to 20 mg of the sample was weighed under ambient conditions in a tared mesh stainless steel basket. The sample was loaded and unloaded at 40% RH and 25° C. A moisture sorption isotherm was performed as outlined. The standard isotherm was performed at 25° C. at 10% RH intervals over a 0 to 90% RH range. Sample was dried at 40° C. from ambient room conditions to 0% RH.

[6] = tested on: U-87 (giloblastoma, epithelial); assay: Anti-proliferative effect, U-87; assay type: cell-based
Experimental: as §1

[7] = pH vs solubility study (RP-HPLC); assay type: physicochemical
Experimental: In 2 mL volume of buffers (ranging from pH 1.2 to 7.4) and purified water, compound (either free base or esylate or oxalate) was added with increments until the compound doesn't dissolve further in the medium and compound remains undissolved or excess in the solution. The samples were kept for overnight at ambient room temperature to saturate/equilibrate. The dispersions were filtered through 0.45 μm PVDF or nylon membrane filters and the filtrates were analysed using RP-HPLC for determination of solubility of compounds in various buffers and purified water.

Mouse plasma = assay: Plasma protein binding, mouse; assay type: in vitro ADME
Experimental: as §1

[8] = Intravenous and per oral pharmacokinetics in male Balb/c mice; assay type: in vivo; conditions: for Bioavailability (% F): PO dose (50 mg/kg) vs IV 10 mg/kg
Experimental: The husbandry conditions were maintained as described in animal facility SOPs during the study period. Animals procured were quarantined for 7 days followed by acclimatization for 5 days. The study was carried out for two days. Male Balb/c mice of age 10-12 weeks (18-25 g) and male Sprague Dawley rats 8-10 weeks (220-280 g) were used. The food was with held for a period of 4-12 hr prior to dosing and returned to all animals 4h post dosing and water supplied ad libitum. The doses of FT1518 were as follows: Mice: 10 mg/kg intravenous (i.v) and 50 mg/kg oral (p.o); rat—5 mg/kg intravenous (i.v) and 10 mg/kg oral (p.o). The formulation used in i.v and p.o studies were 10% dimethylsulfoxide (DMSO)+30% polyethyleneglycol 400 (PEG400)+60% water and 0.5% methylcellulose (MC)+0.1% tween 80. Blood was collected at the predetermined time points in mice (cardiac puncture) and Jugular vein (rats) over a period of 24h in eppendorf tubes containing K2EDTA as anticoagulant. The plasma was isolated from the blood and stored at −80° C. until bioanalysis. Species: BALB/C mice Gender: Male Dose: IV (10 mg/kg), Single dose • PO (50 mg/kg), single dose Formulation: • IV—DMSO: PEG400:Water (10:30:60 v/v) • PO— 0.5% methylcellulose and 0.1% Tween 80 in water Sampling Time Points: • IV: 5 min, 30 min, 1 h, 2, 4, 8 and 24 h post dose • PO: 10 min, 30 min, 1 h, 2, 4, 8 and 24 h post dose. PK analysis: Phoenix software (Pharsight product). Noncompartmental Analysis (NCA) was used to estimate the PK parameters. FIG. 56 depicts a pharmacokinetic profile of FT-1518 base in mice. Table 31 summarizes PK parameters used in a pharmacokinetic profile with intravenous dose in mice and Table 32 summarizes PK parameters used in a pharmacokinetic profile with per oral dose in mice.

[9] = 1 week stability of shortlisted salts at 40° C./75% RH, open; assay type: physicochemical; conditions: for % purity / XRD: after 7 days at 40° C./75% RH, open; for % purity: HPLC; for XRD: physical form vs initial
[10] = normal room temperature / ambient conditions
[11] = IV dose (10 mg/kg), single dose, male Balb/c mice
[12] = PO dose (50 mg/kg), single dose, male Balb/c mice, 50 mg/kg
[13] = male, Balb/c, mouse, plasma, po, 50 mg/kg, PO dose (50 mg/kg), single dose, male Balb/c mice

Compound: CCC(CC)n1cnc2c(-c3cnc(N)cn3)nc(N3CC4CCC(C3)O4)nc21 [FT-1518 base]
- Invitro T1/2, PHLM ([1]; 3 μM (n = 3)): >60 min
- stability in PHLM [1]: ✓ FT1518, FT 1518-Esylate and FT1518-Oxalate was highly stable in PHLM and RLM
- IC50 [2]: > 30 µM
- Invitro T1/2, MLM [3]: 43 min
- solubility (descriptive term) ([4]; 0.11N HCl): soluble
- Solubility ([4]; 1,4-dioxane): >100 mg/mL
- solubility (descriptive term) ([4]; 1,4-dioxane): freely soluble
- Solubility ([4]; Dimethyl sulphoxide): >100 mg/mL
- solubility (descriptive term) ([4]; Dimethyl sulphoxide): freely soluble
- Solubility ([4]; N,N-dimethyl acetamide): >100 mg/mL
- solubility (descriptive term) ([4]; N,N-dimethyl acetamide): freely soluble
- Solubility ([4]; N-methyl pyrrolidone): >100 mg/mL
- solubility (descriptive term) ([4]; N-methyl pyrrolidone): freely soluble
- Solubility ([4]; Purified water): <1 mg/mL
- Solubility ([4]; Tetrahydrofuran): >100 mg/mL
- solubility (descriptive term) ([4]; Tetrahydrofuran): freely soluble
- solubility (descriptive term) ([4]; acetone): freely soluble
- solubility (descriptive term) ([4]; acetonitrile): soluble
- Solubility ([4]; dichloromethane): >100 mg/mL
- solubility (descriptive term) ([4]; dichloromethane): freely soluble
- Solubility ([4]; diethyl ether): <1 mg/mL
- solubility (descriptive term) ([4]; diethyl ether): insoluble
- Solubility ([4]; ethanol): >100 mg/mL
- solubility (descriptive term) ([4]; ethanol): freely soluble
- solubility (descriptive term) ([4]; ethyl acetate): soluble
- solubility (descriptive term) ([4]; isopropyl acetate): soluble
- solubility (descriptive term) ([4]; isopropyl alcohol): freely soluble
- Solubility ([4]; methanol): >100 mg/mL
- solubility (descriptive term) ([4]; methanol): freely soluble
- solubility (descriptive term) ([4]; methyl tertiary butyl ether): slightly soluble
- Solubility ([4]; n-heptane): <1 mg/mL
- solubility (descriptive term) ([4]; n-heptane): insoluble
- Solubility ([4]; n-hexane): <1 mg/mL
- solubility (descriptive term) ([4]; n-hexane): insoluble
- solubility (descriptive term) ([4]; purified water, listed as FT1518): practically insoluble
- solubility (descriptive term) ([4]; purified water, listed as FT-1518): insoluble
- solubility (descriptive term) ([4]; toluene): soluble
- hygroscopicity [5, 10]: non-hygroscopic
- hygroscopicity ([5]; sorption cycle 0 to 95% RH at 25° C.): slightly hygroscopic. As there was no
- moisture uptake ([5]; up to 70% RH, 25° C.): There was about <2% moisture uptake up
- IC50 [6]: > 10 µM
- Solubility ([7]; Water, overnight, ambient room temperature, listed as Free base): 0.12 mg/mL (≈ 0.304 mM)
- Solubility ([7]; pH 1.2 HCl, listed as Free base): >50.25 mg/mL
- Solubility ([7]; pH 3.0 Citrate buffer, listed as Free base): 2.11 mg/mL (≈ 5.35 mM)
- Solubility ([7]; pH 4.0 Acetate buffer, listed as Free base): 0.34 mg/mL (≈ 0.862 mM)
- Solubility ([7]; pH 5.0 Acetate buffer, listed as Free base): 0.14 mg/mL (≈ 0.355 mM)
- Solubility ([7]; pH 6.8 Phosphate buffer, listed as Free base): 0.11 mg/mL (≈ 0.279 mM)
- Solubility ([7]; pH 7.4 Phosphate buffer, listed as Free base): 0.1 mg/mL (≈ 0.253 mM)
- plasma protein binding, mouse plasma (Mouse plasma): ✓ FT1518, FT1518-Esylate and FT1518-Oxalate showed moderate plasma protein binding in both mouse and human plasma
- % Bound, Mouse plasma (Mouse plasma; 10 μM (n = 4)): 91.52%
- clearance as % of mouse liver blood flow ([8]; IV 10 mg/kg, mice): ~30%
- AUC0-∞ [8, 11]: 7637 ± 2021 ng·h/mL
- Cl [8, 11]: 23.3 ± 8.3 mL/min/kg
- Bioavailability (% F) ([8]; male Balb/c mice): 68 % F
- AUC0-∞ [8, 12]: 25801 ± 404 ng·h/mL
- Cmax [8, 12]: 8761 ± 718 ng/mL
- Tmax [8, 12]: 12 min
- % purity [9]: 97.82%
- XRD [9]: Same as initial form

Compound: CCC(CC)n1cnc2c(-c3cnc(N)cn3)nc(N3CC4CCC(C3)O4)nc21 [FT-1518-Esylate]
- half-life at 3 μM ([1]; 3 μM (n = 3), read-out: Invitro T1/2, PHLM): > 60 min
- stability in PHLM [1]: ✓ FT1518, FT 1518-Esylate and FT1518-Oxalate was highly stable in PHLM and RLM
- IC50 ([2]; Homo sapiens): > 10 µM
- half-life at 3 μM ([3]; mouse, mouse liver microsomes, read-out: Invitro T1/2, MLM): 24 min
- Solubility ([4]; N-methyl pyrrolidone, organic solvent or mixture, thermodynamic from solid, N-methyl pyrrolidone, read-out: Solubility): > 100 mg/mL
- Solubility ([4]; Tetrahydrofuran): <1 mg/mL
- Solubility ([4]; acetone, organic solvent or mixture, thermodynamic from solid, Acetone, read-out: Solubility): < 1 mg/mL
- Solubility ([4]; acetonitrile, organic solvent or mixture, thermodynamic from solid, Acetonitrile, read-out: Solubility): > 100 mg/mL
- Solubility ([4]; dimethyl sulphoxide, organic solvent or mixture, thermodynamic from solid, Dimethyl sulphoxide, read-out: Solubility): > 100 mg/mL
- Solubility ([4]; ethyl acetate, organic solvent or mixture, thermodynamic from solid, Ethyl acetate, read-out: Solubility): < 1 mg/mL
- Solubility ([4]; isopropyl alcohol (2-propanol), organic solvent or mixture, thermodynamic from solid, Isopropyl alcohol (2-propanol), read-out: Solubility): 10 to 25 mg/mL (≈ 25.3 to 63.4 mM)
- Solubility ([4]; n-hexane, organic solvent or mixture, thermodynamic from solid, n-hexane, read-out: Solubility): < 1 mg/mL
- Solubility ([4]; toluene, organic solvent or mixture, thermodynamic from solid, Toluene, read-out: Solubility): < 1 mg/mL
- hygroscopicity [5, 10]: non-hygroscopic
- IC50 [6]: > 10 µM
- Solubility ([7]; Water, overnight, ambient room temperature, listed as Esylate salt): >539.39 mg/mL
- Solubility ([7]; pH 1.2 HCl, listed as Esylate salt): >587.07 mg/mL
- Solubility ([7]; pH 3.0 Citrate buffer, listed as Esylate salt): >76.38 mg/mL
- Solubility ([7]; pH 4.0 Acetate buffer, listed as Esylate salt): 53.25 mg/mL
- Solubility ([7]; pH 5.0 Acetate buffer, listed as Esylate salt): 0.84 mg/mL
- Solubility ([7]; pH 6.8 Phosphate buffer, listed as Esylate salt): 79.08 mg/mL
- Solubility ([7]; pH 7.4 Phosphate buffer, listed as Esylate salt): 40.8 mg/mL
- plasma protein binding, mouse plasma (Mouse plasma): ✓ FT1518, FT1518-Esylate and FT1518-Oxalate showed moderate plasma protein binding in both mouse and human plasma
- Bioavailability (% F) ([8]; male Balb/c mice): 62 % F
- AUC(0-inf) [8, 13]: 23700 ± 9250 ng·h/mL
- half-life [8, 13]: 204 ± 72 min
- Cmax ([8]; male, Balb/c, mouse, plasma, po, 50 mg/kg, PO dose (50 mg/kg), single dose, male Balb/c mice, read-out: Cmax): 8190 ± 891 ng/mL
- Tmax ([8]; mouse, plasma, PO dose (50 mg/kg), single dose, male Balb/c mice, read-out: Tmax): 18 ± 12 min
- pH of 2% w/v aqueous dispersion/solution ([9]; 2% w/v in water): 2.1
- state of 2% w/v aqueous dispersion/solution ([9]; 2% w/v in water): soluble
- % purity [9]: 98.07%
- XRD [9]: Same as initial form
